From patent US7262202B2, “Inhibitors of cyclin dependent kinases as anti-cancer agent” (Cyclacel Limited, priority 2001, dated 2007)
Like-named read-outs stand apart in the source and are kept apart here.

Legend:
CDK2/cyclin E = target: T1, CDK2/cyclin E (Homo sapiens, UniProt P24941); assay: CDK2/Cyclin E kinase assay (GST-Rb phosphorylation, radiolabelled ATP); assay type: biochemical;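 also: enzyme was His-tagged CDK2/cyclin E co-expressed in baculovirus-infected Sf9 insect cells and purified over a metal-chelate column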
T1 construct: His; made in house; host or cells: Sf9 insect cells (baculovirus)

human tumour cell lines = assay: cell-based anti-proliferative assays
From the text: These assays, including methods for their performance, are described in more detail in Example 3. Using such cell line and enzymes assays it may be determined whether a compound is anti-proliferative in the context of the present invention.
Selected compounds from the above examples were subjected to a standard cellular proliferation assay using a range of different human tumour cell lines. Standard 72-h MTT (thiazolyl blue; 3-[4,5-dimethylthiazol-2-yl]-2,5-diphenyltetrazolium bromide) assays were performed (Haselsberger, K.; Peterson, D. C.; Thomas, D. G.; Darling, J. L. Anti Cancer Drugs 1996, 7, 331–8; Loveland, B. E.; Johns, T. G.; Mackay, I. R.; Vaillant, F.; Wang, Z. X.; Hertzog, P. J. Biochemistry International 1992, 27, 501–10). Human tumour cell lines were obtained from the ATCC (American Type Culture Collection, 10801 University Boulevard, Manessas, Va. 20110-2209, USA).

A549 = assay: 72-h MTT cellular proliferation assay, A549; assay type: cell-based; details: human tumour cell line A549, 72-h MTT; read-out: Cytotoxicity (IC50, μM) A549
From the text: (§1) Selected compounds from the above examples were subjected to a standard cellular proliferation assay using a range of different human tumour cell lines.

Saos-2 = assay: 72-h MTT cellular proliferation assay, Saos-2; assay type: cell-based; details: human tumour cell line Saos-2, 72-h MTT; read-out: Cytotoxicity (IC50, μM) Saos-2
From the text: as §1

[1] = bound stated, (±0.05), read-out: IC50 for cdk2/cyclinE

Structure (SMILES) | IC50 (CDK2/cyclin E; [1]) [nM] | IC50 (CDK2/cyclin E; read-out: CDK2/cyclin E (IC50)) [nM] | melting point [°C] | anti-proliferative activity in cell-based assays (human tumour cell lines) | also measured
Cc1c[nH]c(C)c1-c1ccnc(Nc2cccc([N+](=O)[O-])c2)n1 [Compound 2] |  |  |  | particularly effective anti-proliferative agents | 
Cc1c[nH]c(C)c1-c1ccnc(Nc2ccc(I)cc2)n1 [Compound 3, [4-(2,4-Dimethyl-1H-pyrrol-3-yl)-pyrimidin-2-yl]-(4-iodo-phenyl)-amine] | < 500 | 500 |  |  | 
Cc1c[nH]c(C)c1-c1ccnc(Nc2cc(F)cc(F)c2)n1 [Compound 6, (3,5-Difluoro-phenyl)-[4-(2,4-dimethyl-1H-pyrrol-3-yl)-pyrimidin-2-yl]-amine] | < 5000 | 1300 | 153.3 to 156.8 |  | 
Cc1c[nH]c(C)c1-c1ccnc(Nc2ccc(I)c(Cl)c2)n1 [Compound 16, (3-Chloro-4-iodo-phenyl)-[4-(2,4-dimethyl-1H-pyrrol-3-yl)-pyrimidin-2-yl]-amine] | < 5000 | 1520 | 185 to 187.4 | particularly effective anti-proliferative agents | IC50 (A549): 4.39 µM
Cc1[nH]c(C#N)c(C)c1-c1ccnc(Nc2cccc([N+](=O)[O-])c2)n1 [Compound 31, 3,5-Dimethyl-4-[2-(3-nitro-phenylamino)-pyrimidin-4-yl]-1H-pyrrole-2-carbonitrile] |  |  |  | particularly effective anti-proliferative agents | 
Cc1[nH]c(C#N)c(C)c1-c1ccnc(Nc2ccc(O)cc2)n1 [Compound 33, 4-[2-(4-Hydroxy-phenylamino)-pyrimidin-4-yl]-3,5-dimethyl-1H-pyrrole-2-carbonitrile] |  |  |  | particularly effective anti-proliferative agents | 
Cc1[nH]c(C#N)c(C)c1-c1ccnc(Nc2cccc(O)c2)n1 [Compound 36, 4-[2-(3-Hydroxy-phenylamino)-pyrimidin-4-yl]-3,5-dimethyl-1H-pyrrole-2-carbonitrile] | < 500 |  |  | particularly effective anti-proliferative agents | IC50 (Saos-2): 0.9 µM
Cc1ccc(Nc2nccc(-c3c(C)[nH]c(C#N)c3C)n2)cc1[N+](=O)[O-] [Compound 37, 3,5-Dimethyl-4-[2-(4-methyl-3-nitro-phenylamino)-pyrimidin-4-yl]-1H-pyrrole-2-carbonitrile] |  |  |  | particularly effective anti-proliferative agents | 
Cc1ccc(Nc2nccc(-c3c(C)[nH]c(C#N)c3C)n2)cc1O [Compound 40, 4-[2-(3-Hydroxy-4-methyl-phenylamino)-pyrimidin-4-yl]-3,5-dimethyl-1H-pyrrole-2-carbonitrile] |  |  |  | particularly effective anti-proliferative agents | 
Cc1cc(Nc2nccc(-c3c(C)[nH]c(C#N)c3C)n2)ccc1F [Compound 41, 4-[2-(4-Fluoro-3-methyl-phenylamino)-pyrimidin-4-yl]-3,5-dimethyl-1H-pyrrole-2-carbonitrile] |  |  |  | particularly effective anti-proliferative agents | 
Cc1[nH]c(C(N)=O)c(C)c1-c1ccnc(Nc2ccc(F)cc2)n1 [Compound 44, 4-[2-(4-Fluoro-phenylamino)-pyrimidin-4-yl]-3,5-dimethyl-1H-pyrrole-2-carboxylic acid amide] |  |  |  | particularly effective anti-proliferative agents | 
Cc1[nH]c([N+](=O)[O-])c(C)c1-c1ccnc(Nc2ccc(F)cc2)n1 [Compound 47, [4-(2,4-Dimethyl-5-nitro-1H-pyrrol-3-yl)-pyrimidin-2-yl]-(4-fluoro-phenyl)-amine] |  |  |  | particularly effective anti-proliferative agents | 

Second part, led by results:

IC50 (CDK2/cyclin E; [1]) [nM] | IC50 (CDK2/cyclin E; read-out: CDK2/cyclin E (IC50)) [nM] | melting point [°C] | Structure (SMILES) | anti-proliferative activity in cell-based assays (human tumour cell lines) | also measured
< 1000 | 1000 ± 700 |  | Cc1c[nH]c(C)c1-c1ccnc(Nc2ccc(F)cc2)n1 [Compound 1, [4-(2,4-Dimethyl-1H-pyrrol-3-yl)-pyrimidin-2-yl]-(4-fluoro-phenyl)-amine] |  | 
< 5000 | 1300 ± 400 |  | Cc1c[nH]c(C)c1-c1ccnc(Nc2ccc(F)c(F)c2)n1 [Compound 4, (3,4-Difluoro-phenyl)-[4-(2,4-dimethyl-1H-pyrrol-3-yl)-pyrimidin-2-yl]-amine] |  | 
< 5000 | 1700 | 219 to 223 | Cc1c[nH]c(C)c1-c1ccnc(Nc2ccc(Cl)cc2)n1 [Compound 5, (4-Chloro-phenyl)-[4-(2,4-dimethyl-1H-pyrrol-3-yl)-pyrimidin-2-yl]-amine] |  | 
< 5000 | 2900 | 189.5 to 193.4 | Cc1c[nH]c(C)c1-c1ccnc(Nc2ccc(O)cc2)n1 [Compound 7, 4-[4-(2,4-Dimethyl-1H-pyrrol-3-yl)-pyrimidin-2-ylamino]-phenol] |  | 
< 5000 | 1400 | 169 to 174.6 | Cc1c[nH]c(C)c1-c1ccnc(Nc2cccc(O)c2)n1 [Compound 8, 3-[4-(2,4-Dimethyl-1H-pyrrol-3-yl)-pyrimidin-2-ylamino]-phenol] |  | 
 |  | 219 to 220 | Cc1c[nH]c(C)c1-c1ccnc(Nc2ccc(F)cc2F)n1 [Compound 9, (2,4-Difluoro-phenyl)-[4-(2,4-dimethyl-1H-pyrrol-3-yl)-pyrimidin-2-yl]-amine] |  | 
 |  | 158.5 to 159.7 | Cc1c[nH]c(C)c1-c1ccnc(Nc2ccc(Cl)cc2Cl)n1 [Compound 10, (2,4-Dichloro-phenyl)-[4-(2,4-dimethyl-1H-pyrrol-3-yl)-pyrimidin-2-yl]-amine] |  | 
 |  | 187.7 to 190.7 | Cc1c[nH]c(C)c1-c1ccnc(Nc2ccc(Cl)c(C(F)(F)F)c2)n1 [Compound 11, (4-Chloro-3-trifluoromethyl-phenyl)-[4-(2,4-dimethyl-1H-pyrrol-3-yl)-pyrimidin-2-yl]-amine] |  | 
 |  | 152.7 to 154.3 | Cc1c[nH]c(C)c1-c1ccnc(Nc2cccc(C(F)(F)F)c2)n1 [Compound 13, [4-(2,4-Dimethyl-1H-pyrrol-3-yl)-pyrimidin-2-yl]-(3-trifluoromethyl-phenyl)-amine] |  | 
< 5000 | 1730 | 200 to 202 | Cc1c[nH]c(C)c1-c1ccnc(Nc2ccc(I)c(F)c2)n1 [Compound 17, [4-(2,4-Dimethyl-1H-pyrrol-3-yl)-pyrimidin-2-yl]-(3-fluoro-4-iodo-phenyl)-amine] |  | 
< 5000 | 1790 |  | Cc1cn(C)c(C)c1-c1ccnc(Nc2ccc(F)cc2)n1 [Compound 46, (4-Fluoro-phenyl)-[4-(1,2,4-trimethyl-1H-pyrrol-3-yl)-pyrimidin-2-yl]-amine] | particularly effective anti-proliferative agents | 
< 1000 |  |  | Cc1[nH]c(Br)c(C)c1-c1ccnc(Nc2ccc(F)cc2)n1 [Compound 50, [4-(5-Bromo-2,4-dimethyl-1H-pyrrol-3-yl)-pyrimidin-2-yl]-(4-fluoro-phenyl)-amine] |  | 
< 1000 |  |  | Cc1[nH]c(Cl)c(C)c1-c1ccnc(Nc2ccc(F)cc2)n1 [Compound 52, [4-(5-Chloro-2,4-dimethyl-1H-pyrrol-3-yl)-pyrimidin-2-yl]-(4-fluoro-phenyl)-amine] |  | 
< 1000 | 870 | 94.7 to 97.6 | Cc1[nH]c(CN2CCOCC2)c(C)c1-c1ccnc(Nc2ccc(F)cc2)n1 [Compound 55, [4-(2,4-Dimethyl-5-morpholin-4-ylmethyl-1H-pyrrol-3-yl)-pyrimidin-2-yl]-(4-fluoro-phenyl)-amine] |  | 
